Target: T1, NOD2 (Homo sapiens, UniProt Q9HC29)
T1 construct: host or cells: HEK-293T-derived HEK-Blue NF-kB/SEAP reporter cells
Assay: NOD2-HEK-Blue NF-κB reporter cell activation assay (NOD2-expressing HEK-293T cells)
Type: cell-based
Conditions: for Activation of NOD2-expressing HEK-293T cells, colorimetric assay: 10 µM, 16 h (FIG. 1E); for EC50: calculated, three-parameter dose-response nonlinear regression, read-out: pEC50 (μM), dose-dependent activation of NOD2-expressing HEK-293T cells (converted); for NOD2 activation, result in words in the pEC50 column: Table 1; for Potency in structure-activity comparison: relative to TT007, FIG. 2B, 2D, 2F, 6E
Description: FIG. 1(A-F). Virtual screening for small molecule NOD2 agonists. A, Docked structure of muramyl dipeptide (MDP) in the leucine-rich repeat (LRR) domain of rabbit NOD2 (pdb 5IRM). […] B, Results of virtual docking approach with reported chemical structures related to MDP. C, Workflow of virtual screening in which a library was generated using carboxylic acids appended to the L-Val-D-Glu dipeptide and then docked to the NOD2 LRR domain. D, Desmuramyl MDP (dMDP) structures resulting from the virtual screen that were synthesized for further screening. Chemicals shown as a pure enantiomer were synthesized as a racemic mixture. E, Activation of NOD2-expressing HEK-293T cells treated for 16 h with 10 µM of the indicated compound using a colorimetric assay. F, Dose-dependent activation of NOD2-expressing HEK-293T cells using the indicated compounds. Numbers in parentheses represent calculated negative log of the half maximal effective concentration (pEC50) values. NOD activation assays were analyzed using a one-way ANOVA with Dunnett's multiple comparisons test compared to the DMSO control. pEC50 values were derived by a three-parameter dose-response nonlinear regression. ****P<0.0001.
FIG. 2(A-G). Structure-activity relationship studies of 3,5-dimethyl-N-arylpyrazole NOD2 agonists. A, Structures of 3,5-dimethyl-N-arylpyrazole structures synthesized for SAR studies. B-F, Dose-dependent activation of NOD2-expressing HEK-293T cells using the indicated compounds grouped by similar structural perturbations. Numbers in parentheses represent calculated pEC50 values. G, Graph of calculated pEC50 values vs. calculated partition coefficient (clogP). Dotted lines show equivalent lipophilic ligand efficiency (LLE) values. Red arrow indicates optimization of the TT007 scaffold to TT030. pEC50 values were derived by a three-parameter dose-response nonlinear regression.
Cell culture. The following cell lines were used and sourced as follows: HEK-Blue NOD2 (InvivoGen, hkb-hnod2), HEK-Blue NOD1 (InvivoGen, hkb-nod1), HEK-Blue Null2 (hkb-null2), and B16-F10 (ATCC CRL-6475). All cell lines were cultured at 37° C. in 5% CO2 in DMEM (ThermoFisher, 11995065) supplemented with 10% fetal bovine serum (FBS), 100 U mL-1 penicillin, and 100 μg mL-1 streptomycin. Cells were maintained at no greater than 70% confluency and subcultured using TrypLE Express. Cell lines were routinely cultured without antibiotics to ensure no bacterial infection and tested for mycoplasma using a Universal Mycoplasma Detection Kit (ATCC 30-1012K). Primary human peripheral mononuclear blood cells (PBMCs) were cultured at 37° C. in 5% CO2 in RPMI 1640 (ThermoFisher, 61870143) supplemented with 10% FBS. All experimental work using human samples was reviewed and approved by the Scripps Research Institutional Review Board (Protocol IRB-21-7816NOD2).
Reporter cell line activation assay. Approximately 24 h before the assay, culture medium for each of the HEK-Blue reporter cell lines was replaced with a 1:1 mixture of DMEM supplemented with 10% FBS and OptiMEM. On the day of the assay, single cell suspensions (150,000 cells/mL) were produced in HEK-Blue detection medium (InvivoGen, hb-det2). Cells were aliquoted at 200 μL per well of a 96-well plate containing 0.2 μL of a 1000× stock of each test compound in DMSO. Cells were then incubated at 37° C. in 5% CO2 for 8-10 h. To measure activity, wells were then gently pipetted up and down to mix the conditioned medium, and absorbance from the colorimetric product of the secreted alkaline phosphatase was measured at 630 nm. In some assays, cells were stimulated for 16 h with compounds as described above in complete DMEM. Then, 20 μL of the conditioned medium was mixed with 180 μL QUANTI-Blue solution (InvivoGen, rep-qbs) and incubated for 2-4 h at 37° C. Activity was then measured by absorbance as described above.

T1 sequence (Q9HC29 whole entry): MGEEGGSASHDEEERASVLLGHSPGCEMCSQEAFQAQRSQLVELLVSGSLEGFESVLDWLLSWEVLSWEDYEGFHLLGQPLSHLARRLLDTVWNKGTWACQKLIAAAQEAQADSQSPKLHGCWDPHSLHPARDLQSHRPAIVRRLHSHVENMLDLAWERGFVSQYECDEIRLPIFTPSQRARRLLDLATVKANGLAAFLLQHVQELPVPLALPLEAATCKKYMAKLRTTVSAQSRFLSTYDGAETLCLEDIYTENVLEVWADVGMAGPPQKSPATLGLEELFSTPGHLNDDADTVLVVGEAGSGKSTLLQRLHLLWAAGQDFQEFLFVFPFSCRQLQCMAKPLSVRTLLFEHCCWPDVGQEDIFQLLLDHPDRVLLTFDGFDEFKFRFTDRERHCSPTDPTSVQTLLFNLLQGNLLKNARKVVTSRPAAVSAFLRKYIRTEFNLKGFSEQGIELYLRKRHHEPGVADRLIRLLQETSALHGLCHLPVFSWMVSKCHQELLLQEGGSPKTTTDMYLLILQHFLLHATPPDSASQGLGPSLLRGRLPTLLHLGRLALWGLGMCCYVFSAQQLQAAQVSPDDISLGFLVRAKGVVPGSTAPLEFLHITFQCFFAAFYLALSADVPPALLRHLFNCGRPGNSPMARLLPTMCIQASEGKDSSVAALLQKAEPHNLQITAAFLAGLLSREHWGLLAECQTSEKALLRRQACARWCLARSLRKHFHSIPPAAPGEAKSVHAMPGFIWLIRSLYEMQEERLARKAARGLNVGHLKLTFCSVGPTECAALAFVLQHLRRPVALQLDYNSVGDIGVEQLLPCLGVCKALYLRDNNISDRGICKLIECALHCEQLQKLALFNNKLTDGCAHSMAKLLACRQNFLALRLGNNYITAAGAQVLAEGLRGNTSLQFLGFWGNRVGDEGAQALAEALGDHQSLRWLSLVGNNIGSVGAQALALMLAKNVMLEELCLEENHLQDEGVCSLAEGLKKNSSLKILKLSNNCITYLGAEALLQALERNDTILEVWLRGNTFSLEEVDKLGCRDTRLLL

Structure (SMILES)	EC50 [µM]	further results
CCOC(=O)CC[C@@H](NC(=O)[C@@H](NC(=O)c1cn(-c2ccccc2)nc1-c1cccc(C)c1)C(C)C)C(=O)OCC [TT008, Diethyl (1-phenyl-3-(m-tolyl)-1H-pyrazole-4-carbonyl)-L-valyl-D-glutamate]		Activation of NOD2-expressing HEK-293T cells, colorimetric assay: inactive
CCOC(=O)CC[C@@H](NC(=O)[C@@H](NC(=O)[C@@H]1C[C@H]1c1ccc(Cl)c(Cl)c1)C(C)C)C(=O)OCC (racemic) [TT004, Diethyl (rac-(1R,2R)-2-(3,4-dichlorophenyl)cyclopropane-1-carbonyl)-L-valyl-D-glutamate]		NOD2 activation, result in words in the pEC50 column: Active
CCOC(=O)CC[C@@H](NC(=O)[C@@H](NC(=O)c1cnn(-c2ccccc2O)c1C)C(C)C)C(=O)OCC [TT014, Diethyl (1-(2-hydroxyphenyl)-5-methyl-1H-pyrazole-4-carbonyl)-L-valyl-D-glutamate]	31.6	
CCOC(=O)CC[C@@H](NC(=O)[C@@H](NC(=O)c1cn(-c2ccc(F)cc2)nc1-c1cccc(C)c1)C(C)C)C(=O)OCC [TT009, Diethyl (1-(4-fluorophenyl)-3-(m-tolyl)-1H-pyrazole-4-carbonyl)-L-valyl-D-glutamate]		Activation of NOD2-expressing HEK-293T cells, colorimetric assay: inactive; Potency in structure-activity comparison: did not compensate the lack of the other substituent
CCOC(=O)CC[C@@H](NC(=O)[C@@H](NC(=O)c1c(C)nn(-c2ccc(NC(=O)OC(C)(C)C)nc2)c1C)C(C)C)C(=O)OCC [TT027, Diethyl (1-(6-((tert-butoxycarbonyl)amino)pyridin-3-yl)-3,5-dimethyl-1H-pyrazole-4-carbonyl)-L-valyl-D-glutamate]	0.158	
CCOC(=O)CC[C@@H](NC(=O)[C@@H](NC(=O)c1c(C)nn(-c2ccccc2)c1C)C(C)C)C(=O)OCC [TT018, Diethyl (3,5-dimethyl-1-phenyl-1H-pyrazole-4-carbonyl)-L-valyl-D-glutamate]	2.51	Potency in structure-activity comparison: did not yield compounds with appreciable differences in potency
CCOC(=O)CC[C@@H](NC(=O)[C@@H](NC(=O)c1cnn(-c2ccncc2)c1C)C(C)C)C(=O)OCC [TT016, Diethyl (5-methyl-1-(pyridin-4-yl)-1H-pyrazole-4-carbonyl)-L-valyl-D-glutamate]	79.4	
CCOC(=O)CC[C@@H](NC(=O)[C@@H](NC(=O)c1cnn(-c2ccc(F)cc2)c1C)C(C)C)C(=O)OCC [TT010, Diethyl (1-(4-fluorophenyl)-5-methyl-1H-pyrazole-4-carbonyl)-L-valyl-D-glutamate]	39.8	Potency in structure-activity comparison: reduced potency by up to two orders of magnitude
CCOC(=O)CC[C@@H](NC(=O)[C@H](C(C)C)N(C)C(=O)c1c(C)nn(-c2ccccc2)c1C)C(=O)OCC [TT019, Diethyl N-(3,5-dimethyl-1-phenyl-1H-pyrazole-4-carbonyl)-N-methyl-L-valyl-D-glutamate]		Activity after N-methylation on Val (TT018 vs. TT019, TT010 vs. TT020, TT011 vs. TT021, FIG. 2C): abolished the activity
CCOC(=O)CC[C@@H](NC(=O)[C@@H](NC(=O)c1cn(-c2ccc(C)cc2)nc1C)C(C)C)C(=O)OCC [TT013, Diethyl (3-methyl-1-(p-tolyl)-1H-pyrazole-4-carbonyl)-L-valyl-D-glutamate]	10	
CCOC(=O)CC[C@@H](NC(=O)[C@@H](NC(=O)CCCc1ccccc1)C(C)C)C(=O)OCC [TT001, Diethyl (4-phenylbutanoyl)-L-valyl-D-glutamate]		NOD2 activation, result in words in the pEC50 column: Active
CCOC(=O)CC[C@@H](NC(=O)[C@@H](NC(=O)CNC(=O)/C=C/c1ccccc1)C(C)C)C(=O)OCC [CinGVE, Diethyl cinnamoylglycyl-L-valyl-D-glutamate, reference compound]	1.26	

More lines, main results first:

EC50 [µM]	Structure (SMILES)	further results
0.398	CCOC(=O)CC[C@@H](NC(=O)[C@@H](NC(=O)c1c(C)nn(-c2cnc3[nH]ccc3c2)c1C)C(C)C)C(=O)OCC [TT029, Diethyl (3,5-dimethyl-1-(1H-pyrrolo[2,3-b]pyridin-5-yl)-1H-pyrazole-4-carbonyl)-L-valyl-D-glutamate]	
1.58	C#CCCC1(CC(=O)N[C@H](C(=O)N[C@H](CCC(=O)OCC)C(=O)OCC)C(C)C)N=N1 [x-alk-VE]	
2.51	CCOC(=O)CC[C@@H](NC(=O)[C@@H](NC(=O)c1c(C)nn(-c2cccnc2)c1C)C(C)C)C(=O)OCC [TT033, Diethyl (3,5-dimethyl-1-(pyridin-3-yl)-1H-pyrazole-4-carbonyl)-L-valyl-D-glutamate]	
3.16	CCOC(=O)CC[C@@H](NC(=O)[C@@H](NC(=O)c1c(C)nn(-c2ccncc2)c1C)C(C)C)C(=O)OCC [TT031, Diethyl (3,5-dimethyl-1-(pyridin-4-yl)-1H-pyrazole-4-carbonyl)-L-valyl-D-glutamate]	
1.26	CCOC(=O)CC[C@@H](NC(=O)[C@@H](NC(=O)c1c(C)nn(-c2ccc(Cl)c(Cl)c2)c1C)C(C)C)C(=O)OCC [TT022, Diethyl (1-(3,4-dichlorophenyl)-3,5-dimethyl-1H-pyrazole-4-carbonyl)-L-valyl-D-glutamate]	Potency in structure-activity comparison: slight increase
2.51	CCOC(=O)CC[C@@H](NC(=O)[C@@H](NC(=O)c1c(C)nn(-c2cccc(OC)c2)c1C)C(C)C)C(=O)OCC [TT036, Diethyl (1-(3-methoxyphenyl)-3,5-dimethyl-1H-pyrazole-4-carbonyl)-L-valyl-D-glutamate]	
1	CCOC(=O)CC[C@@H](NC(=O)[C@@H](NC(=O)c1c(C)nn(-c2ccc(Cl)cc2)c1C)C(C)C)C(=O)OCC [TT024, Diethyl (1-(4-chlorophenyl)-3,5-dimethyl-1H-pyrazole-4-carbonyl)-L-valyl-D-glutamate]	Potency in structure-activity comparison: did not yield compounds with appreciable differences in potency
2	CCOC(=O)CC[C@@H](NC(=O)[C@@H](NC(=O)c1c(C)nn(-c2ccc(OC)cc2)c1C)C(C)C)C(=O)OCC [TT023, Diethyl (1-(4-methoxyphenyl)-3,5-dimethyl-1H-pyrazole-4-carbonyl)-L-valyl-D-glutamate]	Potency in structure-activity comparison: did not yield compounds with appreciable differences in potency
1.58	CCOC(=O)CC[C@@H](NC(=O)[C@@H](NC(=O)c1c(C)nn(-c2ccccn2)c1C)C(C)C)C(=O)OCC [TT032, Diethyl (3,5-dimethyl-1-(pyridin-2-yl)-1H-pyrazole-4-carbonyl)-L-valyl-D-glutamate]	
0.251	CCOC(=O)CC[C@@H](NC(=O)[C@@H](NC(=O)c1c(C)nn(-c2ccc3[nH]ccc3c2)c1C)C(C)C)C(=O)OCC [TT028, Diethyl (1-(1H-indol-5-yl)-3,5-dimethyl-1H-pyrazole-4-carbonyl)-L-valyl-D-glutamate]	
1.58	CCOC(=O)CC[C@@H](NC(=O)[C@@H](NC(=O)c1c(C)nn(-c2ccccc2OC)c1C)C(C)C)C(=O)OCC [TT035, Diethyl (1-(2-methoxyphenyl)-3,5-dimethyl-1H-pyrazole-4-carbonyl)-L-valyl-D-glutamate]	
2.51	CCOC(=O)CC[C@@H](NC(=O)[C@@H](NC(=O)c1c(C)nn(-c2cncnc2)c1C)C(C)C)C(=O)OCC [TT034, Diethyl (3,5-dimethyl-1-(pyrimidin-5-yl)-1H-pyrazole-4-carbonyl)-L-valyl-D-glutamate]	

Source: patent US20260176300A1, “N-ARYLPYRAZOLE NOD2 AGONISTS AS PROMOTERS OF IMMUNE CHECKPOINT INHIBITOR THERAPY” (THE SCRIPPS RESEARCH INSTITUTE, priority 2022, published 2026)
